Data on nine molecules can be found in ChEMBL document CHEMBL1781930, “Facile transformation of Biginelli pyrimidin-2(1H)-ones to pyrimidines. In vitro evaluation as inhibitors of Mycobacterium tuberculosis and modulators of cytostatic activity” (Eur J Med Chem, 2011).

Data set [1] concerns Human immunodeficiency virus. In words: Antiviral activity against HIV at subtoxic concentration. The format is functional, organism-based.
A further data set relates to L1210. The experiment in a line: Cytostatic activity against mouse L1210 cells assessed as inhibition of cell proliferation after 2 days by particle counter assay. The format is functional, cell-based. As to conditions: L1210, 48 h.
The next data set deals with FM3A. In words: Cytostatic activity against mouse FM3A cells assessed as inhibition of cell proliferation after 2 days by particle counter assay. The format is functional, cell-based. As to conditions: 48 h.
The subject of a further data set is HeLa. In words: Cytostatic activity against human HeLa cells assessed as inhibition of cell proliferation after 3 days by particle counter assay. The format is functional, cell-based. As to conditions: 72 h.
Another data set has as its system CCRF-CEM. The experiment in a line: Cytostatic activity against human CEM cells assessed as inhibition of cell proliferation after 3 days by particle counter assay. The format is functional, cell-based. The note with it: 72 h.
Data set [2] relates to Mycobacterium tuberculosis. In words: Antimycobacterial activity against Mycobacterium tuberculosis H37Rv ATCC 27294 after 7 days by microplate alamar blue assay. The format is functional. As to conditions: H37Rv ATCC 27294, 168 h.
Data set [3] in a line: Cytotoxicity against cat CRFK cells. The format is cell-based, Felis catus.
Data set [4] can be described thus: Cytotoxicity against human embryonic lung cells. The format is cell-based.
In data set [5] the test system is Mycobacterium tuberculosis. In words: Antimycobacterial activity against Mycobacterium tuberculosis H37Rv ATCC 27294 at […] after 7 days by microplate alamar blue assay. The format is functional. As to conditions: H37Rv ATCC 27294, 168 h.

pIC50: −log10 of the molar value. In brackets after ≈: the same amount, converted by molar mass. Activity calls are given as the source filed them. No cut-off for these calls is given here.

As to `CCOC(=O)c1c(C)nc(NCCc2c[nH]c3ccccc23)nc1-c1ccccc1`, the outcome in data set [1] was inactive. Also, the pIC50 in the data set with L1210 is 4.55; in the data set on FM3A, 4.47; in the data set on HeLa, 4.64; with CCRF-CEM it was 4.51.
In the case of `COc1c(N2C[C@@H]3CCCN[C@@H]3C2)c(F)cc2c(=O)c(C(=O)O)cn(C3CC3)c12` [MOXIFLOXACIN], 0.47 µM (≈ 0.189 µg/mL) was the least that counted as inhibitory in data set [2] (MIC).
With `COC(=O)c1c(C)nc(NCc2ccccc2)nc1-c1ccccc1`, the MCC in data set [3] and in [4] was 4 µg/mL each time.
With `O=[N+]([O-])c1cn2c(n1)OC[C@@H](OCc1ccc(OC(F)(F)F)cc1)C2` [PRETOMANID], the lowest concentration to inhibit growth in [2] (MIC) was 0.48 µM (≈ 0.172 µg/mL).
Regarding `COC(=O)c1c(C)nc(Cl)nc1-c1ccccc1`, in [1], the outcome was inactive.
On to `CCOC(=O)c1c(C)nc(Cl)nc1-c1ccccc1`, for which the outcome in data set [1] was inactive.
`CCOC(=O)c1c(C)nc(N2CCOCC2)nc1-c1ccccc1` registered an MIC in data set [2] of 125 µM (≈ 41 µg/mL). Also, the result in data set [1] was inactive. Also, the inhibition at […] in data set [5] was found to be 96%. Also, the pIC50 was < 3.30 with L1210, < 3.30 in the data set with FM3A, ≤ 3.30 in the data set with HeLa and ≤ 3.30 in the data set with CCRF-CEM.
Consider `CCOC(=O)c1cnc(NCc2ccccc2)nc1C`, for which the result in data set [1] was inactive. Also, the pIC50 with L1210 was 3.42; with FM3A, 3.51; in the data set on HeLa it was 3.83; in the data set with CCRF-CEM, 3.32.
In turn, `NNC(=O)c1ccncc1` [ISONIAZID] returned an MIC in [2] of 0.12 µM (≈ 0.0165 µg/mL).
